Read-outs that look alike come from different tables or passages of the source.
Assays:
[1] = DPPH radical reduction by ethanolic solutions of eugenol and EDChA (IC50); type: biochemical; settings: ethanolic solution, 10 min incubation, 517 nm; read-out: IC50, concentration reducing 50% of free radicals (DPPH method)
Procedure: Antioxidative activity of ethanolic solutions of eugenol and its new derivative (EDChA) were determined using spectrophotometric method based on DPPH radical reduction as described elsewhere ([Brand-Williams et al., 1995]; [Makuch et al., 2020]). The absorbance at the wavelength of 517 nm was measured using Spectroquant Pharo 300 (Merck, Germany). The antioxidant activity of eugenol and its ester was measured as follows: to 2,850 µl of DPPH ethanolic solution (absorbance at 517 nm 1.00 ± 0.02) 150 µl of the sample (containing one of the tested compound at a concentration of 1.000 w/w) was added. The concentration of the analyzed sample in DPPH ethanolic solution was 0.050% w/w. The tube was wrapped in aluminum foil, sealed with a stopper and incubated for 10 min at room temperature. Each sample was prepared in triplicate. After incubation, spectrophotometric measurements were carried out at 517 nm. Solvent applied to obtain extracts was used as reference. The results were expressed as radical scavenging activity (RSA) ([Nowak et al., 2019]). For each studied compound calibration curve of RSA vs. concentration (0.006–50.000% w/v) was prepared to calculate IC50, i.e. the concentration of the compound reducing 50% of free radicals. The concentration range of the analyzed samples in DPPH ethanolic solution were 0.0003–2.5000% w/v.

[2] = In vitro skin permeation in Franz diffusion cell; type: in vitro ADME, porcine
Procedure: The skin permeability for vehicles containing eugenol and EDChA were assessed in a Franz diffusion cell consisted of a 2 ml donor chamber and an 8 ml acceptor chamber. The permeation area was 1 cm^2. The acceptor fluid, mixed with a magnetic stirrer, was a PBS (phosphate-buffered saline, pH 7.4) solution that maintained the physiological pH. […] Before starting the test, Franz diffusion cells were allowed to equilibrate at 37°C for 15 min. Porcine skin was used for the study due to its similar permeability properties to human skin. The skin was from a local slaughterhouse. A fresh portion of skin from the abdomen was washed several times with a solution of PBS. Skin with a thickness of 0.5 mm was cut with a dermatome, and then it was wrapped in aluminum foil and frozen at –20°C for a maximum of 3 months. […] Before the study, the skin was thawed at room temperature for about 30 min, and then it was soaked in a PBS solution for 15 min to hydrate it. In the next stage, the skin was mounted in Franz diffusion cells. The integrity of skin was checked 1 h after its installation in the Franz diffusion chamber (SES GmbH Analyze Systeme, Germany). […] To make the measurement, the tips of the probes were immersed in the donor and acceptor chambers filled with the PBS solution.
Preparations (1.000 g) containing one of the test compound (eugenol and EDChA) were placed in the donor chamber. All donor chambers were closed with a plastic stopper to prevent excessive evaporation of the vehicle. […] The samples were analyzed by high-performance liquid chromatography (HPLC).
(§1) The permeation rate was determined based on the amount of permeated compound over a given period (μg/cm^2/h).
(§2) The samples were analyzed by high-performance liquid chromatography (HPLC) with a UV detector (Knauer, Berlin, Germany). […] The flow rate of the mobile phase, consisted of acetonitrile, water, and MeOH (28:64:8, by vol), was 1 ml/min. Twenty microliters of each analyzed sample was injected onto the column.

[3] = shake-flask method; ref Makuch et al., 2020; cited from earlier work
[4] = parameters: method as in Floegel et al., 2011; settings: literature value; ref Floegel et al., 2011; read-out: IC50 described in the literature (DPPH); cited from earlier work
[5] = Total polyphenole content by Folin-Ciocalteu method on acceptor fluid and solution after skin extraction
Procedure: The antioxidant activity of acceptor fluid taken after 24 h of permeation, and solutions obtained after skin extraction performed after the experiment was determined using the DPPH (according to the procedure described above) ([Brand-Williams et al., 1995]; [Makuch et al., 2020]), ABTS ([Makuch et al., 2020]) and Folin–Ciocalteau ([Nowak et al., 2019]; [Makuch et al., 2020]) methods. The ABTS assay is based on the generation of a blue/green ABTS radical, which is applicable to both hydrophilic and lipophilic antioxidant systems; whereas DPPH assay uses a radical dissolved in organic media and is, therefore, applicable to hydrophobic systems ([Molyneux 2004]). To determine the total content of phenolic compounds in the tested samples the method based on the use of the Folin–Ciocalteu reagent in alkaline medium was applied. The reaction is based on the spectrophotometrically recorded color change of the test solution from yellow to blue. Folin–Ciocalteu reagent was diluted tenfold with water in a dark bottle and incubated at room temperature for 60 min. […] The cuvette was sealed with a stopper and incubated for 15 min at room temperature. […]

[6] = Skin accumulation (extraction of skin after the permeation experiment); type: in vitro ADME, porcine; settings: after 24 h experiment
Procedure: After completion of permeation experiment, the skin was extracted to estimate the residual amount of tested active ingredients accumulated in it. […] Extraction was carried out as follows: after the experiment was completed, the Franz diffusion chambers were dismantled, while the skin surface was washed three times with an aqueous solution of sodium lauryl sulfate (at a concentration of 0.5% w/w) to rinse of the excess of vehicle containing test compound. A patch (1 cm^2 diffusion surface) was cut from the skin prepared in this way, dried at room temperature, and then weighed and cut into smaller pieces. […] The obtained extracts were then centrifuged at 3,500 rpm for 5 min. The supernatant was analyzed by HPLC to determine the content of active ingredients, while tests on the antioxidant activity of the obtained extracts was evaluated using the DPPH, Folin–Ciocalteau, and ABTS methods.
as §1, §2

| Skin accumulation of substance ([6]; cream vehicles) | Skin accumulation of substance ([6]; gel vehicles) | Cumulative mass of substance after 24 h of permeation test ([2]; cream vehicles, 1.000% w/w active, acceptor PBS pH 7.4, 1 cm^2) | Mass of substance in the acceptor fluid after 24 h of permeation ([2]; gel vehicles, 1.000% w/w active, acceptor PBS pH 7.4, 1 cm^2) | SMILES | IC50 [1] | Cumulative mass of substance after 24 h of permeation test ([2]; pig, 24 h, 1 % w/w, pH 7.4) | Mass of substance in the acceptor fluid after 24 h of permeation ([2]; pig, 24 h, 1 % w/w, pH 7.4) | log p [3] | IC50 [4] | Total polyphenole content (folin-ciocalteu method), solution after skin extraction ([5]; cream vehicles) | Antioxidant activity (Folin-Ciocalteu method) of solution obtained after skin extraction ([5]; cream vehicle) |
| --- | --- | --- | --- | --- | --- | --- | --- | --- | --- | --- | --- |
|  |  |  |  | C=CCc1ccc(O)c(OC)c1 [Eugenol, 4-allyl-2-methoxyphenol] | 0.0061 mM | 20.5 ± 0.8 µg | 31.3 ± 4.3 µg | 2.20 ± 0.001 | 50.4 µM | 0.2 ± 0.1 mmol GA/dm^3 |  |
| 173.9 ± 8.4 µg/cm^2 skin | 255.9 ± 20.1 µg/cm^2 skin | 19.6 ± 1.8 µg | 28.8 ± 2.6 µg | C=CCc1ccc(OC(=O)C(Cl)Cl)c(OC)c1 [EDChA, eugenyl dichloroacetate] | 4.28 mM |  |  |  |  |  | 0.3 ± 0.1 mmol GA/dm^3 |

Reference: publication PMC8267472, “The Effect of Cream and Gel Vehicles on the Percutaneous Absorption and Skin Retention of a New Eugenol Derivative With Antioxidant Activity” (Frontiers in Pharmacology, 2021)
